Patent US5191079A, “Quinolinecarboxylic acid derivatives” (priority 1990, dated 1993)
Where a name gives a salt, the structure may show the parent alone. Read-outs that look alike come from different tables or passages of the source.

Tests used:
Assay type in all cases: cell-based
[1] = test system: Staphylococcus aureus ATCC 9144; assay: MIC, Experiment 1; settings: ATCC9144, S. aureus ATCC 9144, Gram +, read-out: Min. inhib. concentr. (MIC)
Method: (§1) The compounds of the present invention (B, E, G, H, M, N, O, P and Q) were each dissolved in dimethylsulfoxide to prepare a solution of 5000 μg/ml in concentration. The compounds of the present invention (I, J and K) and the known compound (Y) were each dissolved in sterilized distilled water to prepare a solution of 5000 μg/ml in concentration. Each solution was diluted with sterilized distilled water to prepare a standard solution with a concentration of each test compound: 1000 μg/ml. The test was carried out by a method as appointed by Japan Society of Chemotherapy [cf. Chemotherapy, 29, 76-79 (1981), TOKYO].
(§2) As to Streptococcus pneumoniae and Streptococcus pyogenes, Brain heart infusion broth (manufactured by DIFCO) was used as the medium for the preculture thereof, and a heart infusion agar medium containing 5% defibrinated horse blood (manufactured by Nissui Seiyaku K. K., Japan) was used as the medium for the measurement of minimum inhibitory concentration (MIC). As to other microorganisms, a sensitivity test broth (manufactured by Nissui Seiyaku K. K.) was used as the medium for the preculture thereof, and a sensitivity test agar medium (manufactured by Nissui Seiyaku K. K.) was used as the medium for the measurement of MIC.

[2] = test system: Bacillus subtilis ATCC 6633; assay: MIC, Experiment 1; settings: ATCC6633, B. subtilis ATCC 6633, Gram +, read-out: Min. inhib. concentr. (MIC)
Method: as §1, §2

[3] = test system: Enterobacter cloacae 963; assay: MIC, Experiment 1; settings: E. cloacae 963, Gram -, read-out: Min. inhib. concentr. (MIC)
Method: as §1, §2

[4] = test system: Streptococcus pyogenes Sv; assay: MIC, Experiment 1; settings: S. pyogenes Sv, Gram +, agar with 5% defibrinated horse blood, read-out: Min. inhib. concentr. (MIC)
Method: as §1, §2

[5] = test system: Pseudomonas aeruginosa NCTC 10490; assay: MIC, Experiment 1; settings: NCTC10490, P. aeruginosa NCTC 10490, Gram -, read-out: Min. inhib. concentr. (MIC)
Method: as §1, §2

[6] = test system: Staphylococcus aureus IID 803; assay: MIC, Experiment 1; settings: IID803, S. aureus IID 803, Gram +, read-out: Min. inhib. concentr. (MIC)
Method: as §1, §2

[7] = test system: Staphylococcus aureus Terajima (IID 670); assay: MIC, Experiment 1; settings: IID670, S. aureus Terajima (IID 670), Gram +, read-out: Min. inhib. concentr. (MIC)
Method: as §1, §2

[8] = test system: Klebsiella pneumoniae PCI-602; assay: MIC, Experiment 1; settings: PCI602, K. pneumoniae PCI-602, Gram -, read-out: Min. inhib. concentr. (MIC)
Method: as §1, §2

[9] = test system: Micrococcus luteus ATCC 9341; assay: MIC, Experiment 1; settings: ATCC9341, M. luteus ATCC 9341, Gram +, read-out: Min. inhib. concentr. (MIC)
Method: as §1, §2

[10] = test system: Streptococcus pyogenes Cook; assay: MIC, Experiment 1; settings: S. pyogenes Cook, Gram +, agar with 5% defibrinated horse blood, read-out: Min. inhib. concentr. (MIC)
Method: as §1, §2

[11] = test system: Escherichia coli NIHJ JC-2; assay: MIC, Experiment 1; settings: NIHJJC2, E. coli NIHJ JC-2, Gram -, read-out: Min. inhib. concentr. (MIC)
Method: as §1, §2

[12] = test system: Streptococcus pyogenes Su; assay: MIC, Experiment 1; settings: S. pyogenes Su, Gram +, agar with 5% defibrinated horse blood, read-out: Min. inhib. concentr. (MIC)
Method: as §1, §2

[13] = test system: Staphylococcus aureus Cowan I (IID 975); assay: MIC, Experiment 1; settings: IID975, S. aureus Cowan I (IID 975), Gram +, read-out: Min. inhib. concentr. (MIC)
Method: as §1, §2

[14] = test system: Bacillus cereus IAM 1029; assay: MIC, Experiment 1; settings: IAM1029, B. cereus IAM 1029, Gram +, read-out: Min. inhib. concentr. (MIC)
Method: as §1, §2

[15] = test system: Acinetobacter calcoaceticus Ac 54; assay: MIC, Experiment 1; settings: AC54, A. calcoaceticus Ac 54, Gram -, read-out: Min. inhib. concentr. (MIC)
Method: as §1, §2

[16] = test system: Staphylococcus aureus FDA 209P JC-1; assay: MIC, Experiment 1; settings: FDA209P, S. aureus FDA 209P JC-1, Gram +, read-out: Min. inhib. concentr. (MIC)
Method: as §1, §2

[17] = test system: Proteus mirabilis IFO 3849; assay: MIC, Experiment 1; settings: IFO3849, P. mirabilis IFO 3849, Gram -, read-out: Min. inhib. concentr. (MIC)
Method: as §1, §2

[18] = test system: Staphylococcus aureus FDA 243; assay: MIC, Experiment 1; settings: FDA243, S. aureus FDA 243, Gram +, read-out: Min. inhib. concentr. (MIC)
Method: as §1, §2

[19] = test system: Streptococcus pneumoniae IID 554; assay: MIC, Experiment 1; settings: IID554, S. pneumoniae IID 554, Gram +, agar with 5% defibrinated horse blood, read-out: Min. inhib. concentr. (MIC)
Method: as §1, §2

[20] = test system: Streptococcus pneumoniae IID 552; assay: MIC, Experiment 1; settings: IID552, S. pneumoniae IID 552, Gram +, agar with 5% defibrinated horse blood, read-out: Min. inhib. concentr. (MIC)
Method: as §1, §2

[21] = test system: Staphylococcus aureus MS-353; assay: MIC, Experiment 1; settings: MS353, S. aureus MS-353, Gram +, read-out: Min. inhib. concentr. (MIC)
Method: as §1, §2

[22] = test system: clinically isolated Staphylococcus epidermidis; assay: In vitro antibacterial activity against clinical isolates, Experiment 2; settings: for MIC90 / MIC / MIC50: Staphylococcus epidermidis; for MIC50: 50% of strains, read-out: MIC50
Method: The above solutions were then diluted with sterilized distilled water to prepare a standard solution with a concentration of the test compound: 1000 μg/ml each.
For the preculture of each microorganism, there was used as the medium a sensitivity test broth (manufactured by Nissui Seiyaku K. K., Japan), and for the measurement of MIC, there was used a sensitivity test agar medium (manufactured by Nissui Seiyaku K. K.).
The clinically isolates used above were isolated from Nov. 1988 to Jun. 1989 and were obtained from Research Section, Tokyo Clinical Research Center.

[23] = 25 clinical strains S. epidermidis
[24] = 25 clinical strains S. epidermidis, 90% of strains, read-out: MIC90

| Compound | MIC [1] [µg/mL] | MIC [2] [µg/mL] | MIC [3] [µg/mL] | MIC [4] [µg/mL] | MIC [5] [µg/mL] | MIC [6] [µg/mL] | MIC [7] [µg/mL] | MIC [8] [µg/mL] | MIC [9] [µg/mL] | MIC [10] [µg/mL] | MIC [11] [µg/mL] | MIC [12] [µg/mL] | MIC [13] [µg/mL] | MIC [14] [µg/mL] | MIC [15] [µg/mL] | MIC [16] [µg/mL] | MIC [17] [µg/mL] | MIC [18] [µg/mL] | MIC [19] [µg/mL] | MIC [20] [µg/mL] | also measured |
| --- | --- | --- | --- | --- | --- | --- | --- | --- | --- | --- | --- | --- | --- | --- | --- | --- | --- | --- | --- | --- | --- |
| CN1Cc2csc3c(C(=O)O)c(=O)c4cc(F)c(N5CCN(C)C(CF)C5)c1c4n23 (stereo not drawn) [Compound (K), 9,1-(methylimino)methano-7-fluoro-8-(3-fluoromethyl-4-methyl-1-piperazinyl)-5-oxo-5H-thiazolo[3,2-a]quinoline-4-carboxylic acid hydrochloride] | 0.05 | 0.013 | 0.2 | 0.1 | 0.78 | 0.05 | 0.05 | 0.013 | 0.39 | 0.1 | 0.2 | 0.05 | 0.05 | 0.05 | 0.025 | 0.05 | 0.39 | 0.05 | 0.1 | 0.05 | MIC [21]: 0.05 µg/mL; MIC90 [22]: 0.78 µg/mL; MIC [22, 23]: 0.05 to 1.56 µg/mL; MIC50 [22, 23]: 0.05 µg/mL |
| CN1CCN(c2c(F)cc3c(=O)c(C(=O)O)c4scc5n4c3c2OC5)CC1 [Compound (Y), 9,1-Epoxymethano-7-fluoro-8-(4-methyl-1-piperazinyl)-5-oxo-5H-thiazolo[3,2-a]quinoline-4-carboxylic acid hydrochloride, reference compound] | 0.05 | 0.1 | 0.1 | 0.2 | 0.78 | 0.2 | 0.1 | 0.025 | 1.56 | 0.1 | 0.1 | 0.1 | 0.1 | 0.39 | 0.2 | 0.2 | 0.2 | 0.05 | 0.2 | 0.1 | MIC [21]: 0.1 µg/mL; MICrange [22, 23]: 0.025 to 25 µg/mL; MIC50 [22, 23]: 0.1 µg/mL; MIC90 [22, 24]: 12.5 µg/mL |
| COCC1CN(c2c(F)cc3c(=O)c(C(=O)O)c4scc5n4c3c2N(C)C5)CCN1C (stereo not drawn) [Compound (J), 9,1-(Methylimino)methano-7-fluoro-8-(3-methoxymethyl-4-methyl-1-piperazinyl)-5-oxo-5H-thiazolo[3,2-a]quinoline-4-carboxylic acid hydrochloride] | 0.1 | 0.05 | 0.39 | 0.1 | 1.56 | 0.1 | 0.1 | 0.05 | 0.39 | 0.1 | 0.39 | 0.1 | 0.05 | 0.1 | 0.1 | 0.05 | 1.56 | 0.05 | 0.1 | 0.05 | MIC [21]: 0.1 µg/mL; MIC [22, 23]: 0.05 to 6.25 µg/mL; MIC50 [22, 23]: 0.1 µg/mL; MIC90 [22, 24]: 3.13 µg/mL |
